Source: patent US8389739B1, “Modulators of retinoid-related orphan receptor gamma” (Orphagen Pharmaceuticals, priority 2006, dated 2013)
“And” between values parts separate entries of the source, which are not always exact repeats. Equal entries are not always repeated. Where two headings read alike, the source gives them in different places.

Columns and labels:
Type in all cases: cell-based
mRORγ = biological target: T1, mRORγ (Mus musculus, UniProt P51450); experiment: Transcriptional assay, Gal4-mRORγ with luciferase reporter in CHO cells
T1 construct: expressed in transfected cells; host or cells: CHO cells, transient transfection
Method: The complete Gal4-mRORγ nucleotide sequence is shown below:
(§1) A firefly luciferase reporter gene for Gal4 DBD hybrid receptors, such as Gal4-RORγ, contains five copies of the Gal4 17-mer response element in its promoter and the coding sequence for firefly luciferase (pG5-luc, Promega). CHO (Chinese Hamster Ovary) cells were cultured in Ham's F12 medium supplemented with 10% fetal calf serum (Gemini Biologicals), 10 μg/ml penicillin and streptomycin, and were maintained in a humidified 37° C. incubator (Thermo Electron, Steri-Cycle) with 5% CO2. 24 hours before transfection, cells were plated in T175 flasks (5×10^6 cells/flask) or T75 flasks (1.7×10^6 cells/flask). Transient transfection of CHO cells was performed using TransIT-CHO reagents (Minis, Madison, Wis.) with a mixing ratio of 2:6:1 between plasmid DNA (in μg), TransIT-CHO (in μl) and CHO-mojo (in μl).
(§2) Plates are maintained at 37° C. in a humidified atmosphere with 7% CO2 overnight. Four (4) hours after cell seeding, compounds dissolved in DMSO at 10 mM were added to cells at final concentrations of 20 micromolar (μM) to 20 nanomolar (nM) in 0.2% DMSO in triplicate plates. Approximately 40 hours later, cytotoxicity in the assay well was characterized by addition of the dye resazurin (O'Brien, Wilson et al. 2000) to a final concentration of 3 μM. […] Percent viability was determined as 2 hour fluorescence, minus background at t=0 hours, normalized to DMSO controls. For detection of luciferase activity, media was removed from plates after the measurement of resazurin conversion, and SteadyLite luciferase reagent (Perkin-Elmer) was added (30 μl/well). Luminescence is detected with a Victor 2-V plate reader (Perkin-Elmer) and normalized to luciferase activity of DMSO control wells alone.

hAR (androgen receptor) = biological target: T2, hAR (androgen receptor) (Homo sapiens, UniProt P10275); experiment: Crossreactive receptor transcriptional assay (Gal4 hybrid)
T2 construct: 646-919; expressed in transfected cells; host or cells: CHO cells, transient transfection
T2 sequence (P10275 647-920): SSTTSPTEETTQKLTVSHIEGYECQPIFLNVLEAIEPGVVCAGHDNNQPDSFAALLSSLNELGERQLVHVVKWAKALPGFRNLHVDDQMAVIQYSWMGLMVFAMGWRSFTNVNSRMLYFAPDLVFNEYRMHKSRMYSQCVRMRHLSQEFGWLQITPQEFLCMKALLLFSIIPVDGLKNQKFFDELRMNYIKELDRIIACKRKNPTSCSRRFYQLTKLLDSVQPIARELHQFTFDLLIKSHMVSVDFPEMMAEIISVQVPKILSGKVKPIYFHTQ
Method: as §1, §2

[1] = biological target: T3, hPR (progesterone receptor) (Homo sapiens, UniProt P06401); experiment: as above
T3 construct: 687-933; expressed in transfected cells; host or cells: CHO cells, transient transfection
T3 sequence (P06401 687-933): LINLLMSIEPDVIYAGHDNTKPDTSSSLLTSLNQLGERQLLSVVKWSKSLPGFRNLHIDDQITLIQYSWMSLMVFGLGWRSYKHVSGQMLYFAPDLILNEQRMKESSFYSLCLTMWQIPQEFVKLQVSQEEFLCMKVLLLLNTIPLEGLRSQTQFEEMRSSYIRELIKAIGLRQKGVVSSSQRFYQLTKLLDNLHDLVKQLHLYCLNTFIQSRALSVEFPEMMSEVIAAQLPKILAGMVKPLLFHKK
Method: as §1, §2

[2] = biological target: T4, hRXRα (retinoid X receptor alpha) (Homo sapiens, UniProt P19793); experiment: as above
T4 construct: 203-462; expressed in transfected cells; host or cells: CHO cells, transient transfection
T4 sequence (P19793 203-462): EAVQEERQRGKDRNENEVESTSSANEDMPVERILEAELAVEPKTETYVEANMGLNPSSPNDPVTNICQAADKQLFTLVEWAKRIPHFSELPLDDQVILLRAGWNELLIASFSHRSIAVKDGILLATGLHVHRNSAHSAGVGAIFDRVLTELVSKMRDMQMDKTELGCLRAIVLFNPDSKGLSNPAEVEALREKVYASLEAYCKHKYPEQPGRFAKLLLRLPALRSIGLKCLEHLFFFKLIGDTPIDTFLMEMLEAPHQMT
Method: as §1, §2

[3] = biological target: T5, hVDR (Vitamin D receptor) (Homo sapiens, UniProt P11473); experiment: as above
T5 construct: 90-427; expressed in transfected cells; host or cells: CHO cells, transient transfection
T5 sequence (P11473 90-427): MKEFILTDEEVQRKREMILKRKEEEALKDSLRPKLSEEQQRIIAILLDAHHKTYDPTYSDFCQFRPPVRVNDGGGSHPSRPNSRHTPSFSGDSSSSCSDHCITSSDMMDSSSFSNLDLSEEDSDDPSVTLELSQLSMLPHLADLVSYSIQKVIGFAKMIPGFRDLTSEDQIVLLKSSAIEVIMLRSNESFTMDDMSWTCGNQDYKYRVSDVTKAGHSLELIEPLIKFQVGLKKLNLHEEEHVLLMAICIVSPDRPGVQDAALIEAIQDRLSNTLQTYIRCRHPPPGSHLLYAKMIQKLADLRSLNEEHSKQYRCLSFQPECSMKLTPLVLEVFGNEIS
Method: as §1, with “cells/flask).” for “cells/flask). Transient transfection of CHO cells was performed using TransIT-CHO reagents (Minis, Madison, Wis.) with a mixing ratio of 2:6:1 between plasmid DNA (in μg), TransIT-CHO (in μl) and CHO-mojo (in μl).”
as §2, with “Four (4) hours after cell seeding, compounds dissolved in DMSO at 10 mM were added to cells at final concentrations of 20 micromolar (μM) to 20 nanomolar (nM) in 0.2% DMSO in triplicate plates.” left out

[4] = Table 4A, medians of two or more assays, unit inferred, read-out: EC50 Transcriptional
[5] = read-out: EC50 in the transcriptional assay for RORγ
[6] = Table 6, read-out: Potency (EC50) at hAR
[7] = Table 6, read-out: Potency (EC50) at hPR
[8] = Table 6, read-out: Potency (EC50) at hRXRα
[9] = Table 6, read-out: Potency (EC50) at hVDR

T1 sequence (P51450 with tags, fused parts or gaps): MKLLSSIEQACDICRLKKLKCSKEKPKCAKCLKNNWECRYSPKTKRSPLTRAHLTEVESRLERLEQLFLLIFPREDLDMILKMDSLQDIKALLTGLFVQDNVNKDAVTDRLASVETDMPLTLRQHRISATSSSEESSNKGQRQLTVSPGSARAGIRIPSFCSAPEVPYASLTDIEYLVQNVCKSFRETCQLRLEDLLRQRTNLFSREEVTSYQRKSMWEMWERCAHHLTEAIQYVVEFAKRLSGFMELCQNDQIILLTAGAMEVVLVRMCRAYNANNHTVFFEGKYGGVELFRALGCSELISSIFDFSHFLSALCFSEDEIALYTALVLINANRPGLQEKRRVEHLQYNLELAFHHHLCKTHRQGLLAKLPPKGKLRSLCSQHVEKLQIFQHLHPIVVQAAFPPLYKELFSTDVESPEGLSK

SMILES	EC50 (mRORγ; [4]) [µM]	EC50 (hAR (androgen receptor); [6]) [µM]	EC50 [1, 7] [µM]	EC50 [2, 8] [µM]	EC50 [3, 9] [µM]	EC50 (mRORγ; Table 1, antagonists, inhibition of basal Gal4-mRORγ transcription in CHO cells, read-out: Assay EC50 in micromolar at mRORγ Transcriptional) [µM]	EC50 (mRORγ; Table 7, taken from Table 1, read-out: Assay EC50 in micromolar at mRORγ Transcriptional) [µM]	EC50 (mRORγ; [5])	EC50 (mRORγ; Table 2, agonists, antagonist OR-376 (1.5 μM) added to reduce basal transcriptional activity, read-out: EC50 in micromolar at mRORγ Transcriptional) [µM]	EC50 (mRORγ; Table 3, steroidal antagonists, read-out: Assay EC50 in micromolar transcriptional) [µM]	EC50 (hAR (androgen receptor)) [µM]	EC50 [1] [µM]	EC50 [2] [µM]	EC50 [3] [µM]
CC(=O)O[C@H]1CC[C@@]2(C)C(CC[C@]3(C)C2C(=O)C=C2C4[C@@H](C)[C@H](C)CC[C@]4(C(=O)O)CC[C@]23C)C1(C)C (stereo in doubt) [OR-13571, 10-Acetoxy-1,2,6a,6b,9,9,12a-heptamethyl-13-oxo-1,3,4,5,6,6a,6b,7,8,8a,9,10,11,12,12a,12b,13,14b-octadecahydro-2H-picene-4a-carboxylic acid]	0.27	> 10	> 10	> 10	> 10	–	–	< 1 µM	–	–	–	–	–	–
O=S(=O)(c1ccccc1)N(CC(F)(F)F)c1ccc(C(O)(C(F)(F)F)C(F)(F)F)cc1 [Compound T0901317, N-(2,2,2-Trifluoro-ethyl)-N-[4-(2,2,2-trifluoro-1-hydroxy-1-trifluoromethyl-ethyl)-phenyl]-benzenesulfonamide, reference compound]	–	> 10	> 10	> 10	> 10	–	–	–	–	–	–	–	–	–
COC(C)CCC(C)C1CCC2C3CC(O)C4CC(O)CCC4(C)C3CCC12C (centres unmarked) [OR-12872, 17-(4-Methoxy-1-methyl-pentyl)-10,13-dimethyl-hexadecahydro-cyclopenta[a]phenanthrene-3,6-diol]	–	> 10	> 10	> 10	> 10	–	–	–	0.44	–	–	–	–	–
C[C@@H]1CC[C@@]2(OC1)O[C@H]1C[C@H]3[C@@H]4CC[C@H]5C[C@@H](O)CC[C@]5(C)[C@H]4C[C@@H](O)[C@]3(C)[C@H]1[C@@H]2C [OR-885, 5α,20α, 22α, 25D-SPIROSTAN-3β, 12β-DIOL]	–	–	–	–	–	–	–	< 1 µM	–	0.2	> 10	> 10	> 10	> 10
CCn1c(CNc2ccc(Cl)cc2)nnc1SCC(=O)Nc1cccc2ccccc12 [OR-133008, 2-{5-[(4-Chloro-phenylamino)-methyl]-4-ethyl-4H-[1,2,4]triazol-3-ylsulfanyl}-N-naphthalen-1-yl-acetamide]	1.46	> 10	> 10	> 10	> 10	–	–	–	–	–	–	–	–	–

Now from value to molecule, other results behind:

EC50 (mRORγ; [4]) [µM]	EC50 (hAR (androgen receptor); [6]) [µM]	EC50 [1, 7] [µM]	EC50 [2, 8] [µM]	EC50 [3, 9] [µM]	EC50 (mRORγ; Table 1, antagonists, inhibition of basal Gal4-mRORγ transcription in CHO cells, read-out: Assay EC50 in micromolar at mRORγ Transcriptional) [µM]	EC50 (mRORγ; Table 7, taken from Table 1, read-out: Assay EC50 in micromolar at mRORγ Transcriptional) [µM]	SMILES	EC50 (mRORγ; [5])	EC50 (mRORγ; Table 2, agonists, antagonist OR-376 (1.5 μM) added to reduce basal transcriptional activity, read-out: EC50 in micromolar at mRORγ Transcriptional) [µM]	EC50 (mRORγ; Table 3, steroidal antagonists, read-out: Assay EC50 in micromolar transcriptional) [µM]	EC50 (hAR (androgen receptor)) [µM]	EC50 [1] [µM]	EC50 [2] [µM]	EC50 [3] [µM]
–	> 10	> 10	> 10	> 10	0.26	0.26	CCN(c1ccc(C(O)(C(F)(F)F)C(F)(F)F)cc1)S(=O)(=O)c1ccc([N+](=O)[O-])cc1 [OR-1050, N-Ethyl-4-nitro-N-[4-(2,2,2-trifluoro-1-hydroxy-1-trifluoromethyl-ethyl)-phenyl]-benzenesulfonamide]	< 1 µM and 0.3 µM	–	–	–	–	–	–
0.33	> 10	> 10	> 10	> 10	–	–	COc1c(C=NNc2nc(N3CCCCC3)nc(N3CCCCC3)n2)cccc1[N+](=O)[O-] [OR-2161, N-(4,6-Di-piperidin-1-yl-[1,3,5]triazin-2-yl)-N′-(2-methoxy-3-nitro-benzylidene)-hydrazine]	–	–	–	–	–	–	–
